Measurements taken from US20250206754A1, “PAN-CHEMOKINE ANTAGONISTS FOR USE IN TREATING CANCER AND IMMUNE DISORDERS” ("Micar Innovation" LTD., priority 2022, published 2025).
Read-outs that look alike come from different tables or passages of the source.

Tests used:
[1] = test system: MB231cell line; assay: Migration assay by MB231 cell line with CCL19/CCL21; details: 100 nM of CCL19/CCL21
Method: (§1) For this purpose a model for the inhibition of CCL2 release from IL-4, IL-13, IL-22 and IFNγ-stimulated primary human keratinocytes (Eczematous inflammation) was used and also an assay for the inhibition of IL-8 release from IL-17A and TNFα (Psoriatic inflammation). […] Finally, migration assay by MB231cell line was performed.

[2] = test system: CCL2 release; details: Homo sapiens, Keratinocyte, read-out: EC50, CCL2 release
Method: as §1

[3] = target: T1, CCR1 (Homo sapiens, UniProt P32246); assay: β-arrestin selectivity assay, CCR1; format: cell-based
T1 sequence (P32246 1-355): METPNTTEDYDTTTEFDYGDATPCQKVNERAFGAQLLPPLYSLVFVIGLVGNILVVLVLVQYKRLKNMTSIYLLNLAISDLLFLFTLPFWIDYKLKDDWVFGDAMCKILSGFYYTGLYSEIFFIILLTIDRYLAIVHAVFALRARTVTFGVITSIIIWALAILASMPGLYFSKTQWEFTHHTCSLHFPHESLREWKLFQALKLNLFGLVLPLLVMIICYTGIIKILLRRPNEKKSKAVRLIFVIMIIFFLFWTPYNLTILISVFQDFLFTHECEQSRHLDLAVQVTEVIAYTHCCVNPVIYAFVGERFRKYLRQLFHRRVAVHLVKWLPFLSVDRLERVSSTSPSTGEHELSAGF

[4] = target: CCR2 (Homo sapiens, UniProt P41597); assay: β-arrestin selectivity assay, CCR2; format: cell-based
[5] = target: T2, CCR7 (Homo sapiens, UniProt P32248); assay: TANGO β-arrestin antagonist assay, CCR7; format: cell-based
T2 construct: expressed in transfected cells
T2 sequence (P32248 25-378): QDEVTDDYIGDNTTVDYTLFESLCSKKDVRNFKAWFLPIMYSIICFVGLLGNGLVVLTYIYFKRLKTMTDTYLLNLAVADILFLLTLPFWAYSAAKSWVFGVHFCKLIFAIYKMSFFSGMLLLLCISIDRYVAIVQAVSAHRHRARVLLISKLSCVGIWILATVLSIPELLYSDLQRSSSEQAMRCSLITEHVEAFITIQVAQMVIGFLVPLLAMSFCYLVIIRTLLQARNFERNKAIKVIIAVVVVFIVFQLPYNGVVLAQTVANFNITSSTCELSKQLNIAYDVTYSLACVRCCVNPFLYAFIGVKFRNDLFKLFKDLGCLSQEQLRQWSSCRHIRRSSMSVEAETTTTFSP
Method: Selected compounds were initially sent for both antagonist and agonist TANGO β-arrestin assays. […] Replacement only on the amide group with CN led to strong activity decrease in β-arrestin assay: only 31% activity at about 30 μM and similar one at 100 μM (Table 1). Five more derivatives with replaced amide group were also tested in parallel by Ca^2+ mobilization assay and they all were not active up to the tested concertation of 100 μM.
In current CCR7-β-arrestin antagonistic assay a Hill coefficient of 15.1 was obtained, without any transformation of the data. Instead for CCR1, CCR2, CCR3 and CCR5 coefficients much closer to one were calculated, 2.3, 3.1, 2.6 and 1.9, respectively. Moreover, the increase of the activity for CCR3 and CCR5 were over 50-folds for concentrations where the activity raised. […] Further, the CCR7-β-arrestin antagonistic assay was repeated and retrieved almost identical results.

Chain of CCR2 (P41597 whole entry): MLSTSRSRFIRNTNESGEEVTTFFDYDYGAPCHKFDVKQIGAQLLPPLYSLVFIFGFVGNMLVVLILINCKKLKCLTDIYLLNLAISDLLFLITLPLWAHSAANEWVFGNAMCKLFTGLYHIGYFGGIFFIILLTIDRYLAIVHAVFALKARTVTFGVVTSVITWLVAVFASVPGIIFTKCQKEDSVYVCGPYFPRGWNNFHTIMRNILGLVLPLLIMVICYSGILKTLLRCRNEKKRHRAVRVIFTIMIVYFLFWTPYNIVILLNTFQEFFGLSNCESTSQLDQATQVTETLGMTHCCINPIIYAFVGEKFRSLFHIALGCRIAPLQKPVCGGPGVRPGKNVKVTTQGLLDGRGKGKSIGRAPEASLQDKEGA

For `NC(=O)c1ccccc1Oc1ncnc2sc(-c3ccccc3)cc12` [Hit 1, 2-({6-phenylthieno[2,3-d]pyrimidin-4-yl}oxy)benzamide], the “reduction of CCL19/CCL21-induced migration” value [1] was 10 folds, the migratory cells ([1]; control 100%, CCL19/CCL21 200%) was 20% and the EC50 [2] was 0.411 µM. It also gave a Hill coefficient [3] of 2.3, an IC50 [3] of 13.6 µM and a Hill coefficient [4] of 3.1. It also gave an IC50 [4] of 2.6 µM, an inhibition at 100 µM ([5]; 100 μM concentration, read-out: β-arrestin assay (100 μM), Percent of inhibition) of 110% and a Hill coefficient ([5]; CCR7-β-arrestin antagonistic assay, without any transformation of the data) of 15.1. It also gave an IC50 ([5]; TANGO β-arrestin antagonist assay, CCR7, read-out: IC50, antagonistic activity) of 9.1 µM, a Hill slope ([5]; same data transformed to log units, normalized, GraphPad 6) of 11.2 and an IC50 ([5]; same data transformed to log units, normalized, GraphPad 6, read-out: IC50) of 9.2 µM.
